Entries after “also recorded” stand apart in the source; their conditions may differ.
Tests used:
[1] = system: DMBA-induced rat mammary carcinogenesis; assay: Chemoprevention study: DMBA-induced mammary tumors in rats fed experimental diets; conditions: for Survival (%): n=20; for Final tumor incidence: n=20, 114 days, * P<0.05, ** P<0.01 vs control (Fisher's exact test); for Latency (P-: P-value vs +control (DMBA) group, unpaired t-test; for Tumor burden (average tumor weight per group): in words, vs control (FIG. 2b)
Method: Chemoprevention Study. The diets were formulated by Harlan-Teklad (Madison, Wis. USA) to contain approximately the same amounts of protein, fat, and carbohydrates. The basal diet AIN-76A is free of soy products. The diets were also adjusted to contain similar amounts of methionine, cystine, and choline because these nutrients have been reported to affect mammary carcinogenesis. Daidzein and genistein were added in the basal diets as necessary (Table 1), at 140 and 105 mg/Kg of diet respectively. The selected isoflavone concentrations were based on the amounts present in the well-tolerated 16% (w/w) S PI diet (13). The tam oxifen dose of 0.125 mg/Kg diet was selected based on a previous study (24).
Virgin female Sprague-Dawley rats at 35 days of age were randomized by weight into 5 groups (20 rats per group) and fed basal AIN-76A diet. At 43 days of age, all but the control groups received basal diet supplemented with the appropriate test agents. After an additional week the animals received a single dose (12.5 mg) of DMBA intragastrically in sesame oil.
During the experimental period, the animals were weighed weekly. Palpation of mammary tumors began four weeks after animals received DMBA and continued until termination of the study. The date of appearance and location of every palpable tumor were recorded. Rats were observed daily to assess their general health. Rats were sacrificed by CO2 asphyxiation. Mammary tumors were coded by location, removed from the rat, and weighed. Sections of normal mammary tissue were also taken and either flash frozen in liquid nitrogen or formalin-fixed for paraffin embedding. The experiment and protocol was approved and performed in compliance with relevant laws and institutional guidelines according to the Animal Care Committee (01-142) and Animal Welfare Assurance (A3460.01) at the University of Illinois at Chicago.
Statistical analysis. A significant inhibition of tumor induction as achieved by administration of an inhibitor was defined as a statistically significant decrease (at 5% level) in tumor incidence, multiplicity, or latency period. Statistical comparison of tumor latency between groups was by unpaired t-test. The statistical significance of differences between mean tumor multiplicities was assessed using analysis of variance (ANOVA), and the Armitage'stest for trends in proportions (25). Tumor incidence rates were generated by the life table method, and compared by (one tailed) log-rank analysis (25).

[2] = system: 8-oxo-deoxyguanosine (8-oxo-dG); assay: LC-UV-MS-MS quantification of 8-oxo-dG (oxidative DNA damage) in normal mammary glands; assay type: in vivo, female Sprague-Dawley rats; conditions: in words, vs +control (DMBA); FIG. 3
Method: DNA Hydrolysis. DNA was extracted from normal mammary tissue from six different rats from each group and dissolved in water at ˜2 mg/mL. Aliquots (50-μL) containing ˜100 μg of DNA were mixed with 50 μL of buffer (50 mM ammonium acetate, 0.2 mM ZnCl2, pH 5.3), 10 μL of nuclease P1 (0.4 unit/μL), and 8 μL of alkaline phosphatase (1 unit/μL in 10 mM Tris pH 7.4) and incubated at 37° C. for 30 minutes. […] Bedford, Mass. USA). The solution was centrifuged for 15 minutes at 12,000 rpm and 4° C. just before LC-UV-MS-MS analysis. LC-UV-MS-MS Quantification of Oxidized Nucleosides. The HPLC system consisted of a ThermoFinnigan (San Jose, Calif. USA) Surveyor MS pump coupled with an autosampler, a PDA detector and a YMC (Wilmington, N.C. USA) ODS-AQ C18 column (2.0×250 mm, 5 μm), and guard column (4.0×20 mm). Absorbance detection at 240-290 nm was used for on-line HPLC quantification of dG and dC in the DNA hydrolysate, and a standard curve was prepared using standard solutions of dG and dC in the initial mobile phase. […] For DNA oxidation, the solvent system consisted of water/methanol 90:10 (v/v) at the start point and a linear gradient from 10 to 25% (v/v) methanol over 0-25 min. […] Selected reaction monitoring (SRM) was carried out using a TSQ Quantum triple quadruple mass spectrometer equipped with negative ion (for DNA oxidation) electrospray ionisation. Nitrogen was used as the sheath gas and auxiliary gas at 25 and 10 arbitrary units, respectively. The spray voltage was […]. Collision-induced dissociation (CID) was carried out using argon at 1.0-1.5 mTorr with the collision energy of 10-20 V. The span time per ion channel was 0.5 seconds during SRM. For 8-oxo-deoxyguanosine (8-oxo-dG), m/z 282>192 was selected as SRM (m/z 297>204 for the isotopically labelled internal standard). For 5-MedC, m/z 242>126 was selected as SRM (m/z 245>129 for the isotopically labelled internal standard).

[3] = LC-MS analysis of serum isoflavone levels; parameters: species or system female rats; conditions: rat, in vivo
Method: LC-MS analysis of isoflavone levels. Serum isoflavone levels of animals on the diets for four weeks without DMBA treatment were analysed. Blood was collected by orbital bleeding. Serum (400 μL) from each sample was transferred into a 2-mL Eppendorf tube. To each tube, 100 μL of 1 M (pH 5.0) buffer was added followed by vortex mixing, then 40 μL sulphatase (50 mg/mL, Sigma # S-3009) enzyme solution was added. After shaking, the mixture was incubated overnight in a 37° C. water bath (>17 h). The enzymatic hydrolysis was stopped by adding 1 mL ice-cold ethanol/acetonitrile (1:1; v/v), mixed and centrifuged at 4° C. for 15 minutes (10,000 rpm). The supernatant was removed and evaporated to dryness under vacuum. The resulting residue was reconstituted with 150 μL internal standard solution, and three aliquots (15 μL each) were analysed using LC-MS (HP 1100 LC-MS D) over an Xterra RP-18 column (2.1×100 mm, 3.5 μm). The mobile phase was 0.1% (v/v) formic acid followed by acetonitrile (containing 0.1% (v/v) formic acid). Elution was at 200 μL/min. The MSD was operated in negative electrospray ionisation mode with selected ion monitoring of m/z 253 for daidzein and internal standard (chrysin), m/z 269 for genistein, and m/z 241 for equol. Three to four samples from each group were analysed and resulting values are mean± SD.

endometrium DNA damage = assay: DNA damage in endometrium by comet assay; assay type: in vivo, female rats; conditions: diet 28 or 185 days, vs basal diet
Method: (§1) Four groups of female rats were fed the basal AIN-76A diet supplemented with: 1) vehicle (control), (2) tamoxifen (0.125 mg/Kg), (3) daidzein (140 mg/Kg), (4) tamoxifen (0.125 mg/Kg) plus daidzein (140 mg/Kg) combination. Rats were sacrificed at either 28 days (short term exposure) or 185 days (long term exposure) after diet initiation, and the endometrium was removed and processed for immunohistochemical and biochemical evaluations.

PTEN = PTEN staining of endometrial tissue; assay type: in vivo, female rats; conditions: endometrium, diet 28 and 185 days
Method: as §1

[4] = system: proliferating cell nuclear antigen (PCNA); assay: PCNA staining of endometrial tissue; assay type: in vivo, female rats; conditions: endometrium gland and stroma, diet 28 and 185 days, vs basal diet
Method: as §1

[5] = LC-MS analysis of serum isoflavone levels; assay type: in vivo, female rats; conditions: diet for four weeks, no DMBA; 3-4 rats per group; ± SEM
[6] = system: implanted oestrogen-dependent MCF-7 cells; conditions: athymic mice; Cancer Research 62: 2474-2477; cited from earlier work
[7] = female, Sprague-Dawley, 4 weeks

Row | Structure (SMILES) | Survival (%) ([1]; DMBA-exposed rats on diet) | Final tumor incidence ([1]; DMBA-exposed rats on diet) | Latency (P- [1] | Tumor burden (average tumor weight per group) [1] | Mean body weight ([1]; rat, in vivo) | 8-oxo-dG levels (ratio 8-oxo-dG/dG) in mammary glands [2] | Mean serum level of DAI (daidzein) [3, 7] [ng/mL] | Mean serum level of Equol [3, 7] [ng/mL] | Mean serum level of GEN (genistein) [3, 7] [ng/mL] | Mean serum level of Equol [3] | Mean serum level of GEN (genistein) [3] | other results
1 | O=c1c(-c2ccc(O)cc2)coc2cc(O)ccc12 [DAI, 7-hydroxy-3-(4-hydroxyphenyl)-4H-1-benzopyran-4-one] | 95 | 85 | 0.322 | reduced tumor burden as effectively as tamoxifen | 99.2 | suppressed the levels of 8-oxo-dG equal to those of the group never exposed to DMBA | 3.6 ± 0.9 | 115.0 ± 20.6 | 1.2 ± 4.7 | very high concentrations | very low levels | DNA damage (comet assay) (endometrium DNA damage; listed as Daidzein): no damaging effect; DNA damage (comet assay) (endometrium DNA damage; listed as diadzein): did not affect the level of DNA damage; PTEN expression (PTEN; listed as daidzein): reduction in PTEN expression; PTEN expression (PTEN; listed as diadzein): reduced PTEN expression; PCNA expression ([4]; listed as daidzein): increased expression of PCNA; PCNA expression ([4]; listed as diadzein): increased PCNA
2 | O=c1c(-c2ccc(O)cc2)coc2cc(O)cc(O)c12 [GEN, genistein] | 95 | 85 | 0.326 | ineffective |  | ineffective |  |  |  |  |  | Mean body weight ([1]; DMBA-exposed rats on diet, control = 100.0): 100.7; Mean serum level of DAI (daidzein) [5]: very low levels; Mean serum level of Equol [5]: not detectable; Effect on tamoxifen inhibition of growth of implanted MCF-7 cells [6]: negated the inhibitory effect of tamoxifen
3 | CC/C(=C(\c1ccccc1)c1ccc(OCCN(C)C)cc1)c1ccccc1 [TAM, tamoxifen] | 90 | 73* | 0.013 |  | 94.4 | ineffective | 0.2 ± 0.0 | 0.0 | 0.8 ± 0.1 | not detectable | very low levels | Increase of tumor latency over the control value ([1]; compared to positive control): 46%; Mean serum level of DAI (daidzein) [3]: very low levels; DNA damage (comet assay) (endometrium DNA damage; listed as Tamoxifen): significantly increased DNA damage; DNA damage (comet assay) (endometrium DNA damage; listed as tamoxifen): increased DNA damage; PTEN expression (PTEN): reduction in PTEN expression; also recorded: reduced PTEN expression; PCNA expression [4]: increased expression of PCNA; also recorded: increased proliferating cell nuclear antigen (PCNA) expression
